The values that follow come from ChEMBL document CHEMBL6083251, “"Pseudosubstrate Envelope"/Free Energy Perturbation-Guided Design and Mechanistic Investigations of Benzothiazole HIV Capsid Modulators with High Ligand Efficiency” (J Med Chem, 2024).

Data set [1] can be described thus: Clearance in male Sprague-Dawley rat at 2 mg/kg, iv measured upto 24 hrs by LC-MS/MS analysis. The note with it: in vivo. Type of data set: ADME, organism-based.
The nature of data set [2]: Subacute toxicity in male Kunming mouse assessed as pathological damage in kidney at 50 mg/kg, po administered every other day for 14 days by H and E staining based analysis. The note with it: in vivo, 336 h, time 14 day. Type of data set: organism-based.
The nature of data set [3]: Acute toxicity in male Kunming mouse assessed as sedation at 1000 mg/kg, IG administered via gavage. The note with it: in vivo, po. Type of data set: organism-based.
Data set [4] is described as follows: Subacute toxicity in male Kunming mouse assessed as tremor at 50 mg/kg, po administered every other day for 14 days. Type of data set: organism-based. To be noted: in vivo, 336 h, time 14 day.
Data set [5] relates to Human immunodeficiency virus 2. Briefly: Anti-HIV activity against HIV-2 ROD infected in human MT-4 cells assessed as protection against virus-induced cytopathic effect incubated for 5 days by spectrophotometric based MTT assay. In kind it is functional, organism-based. The note with it: Human immunodeficiency virus 2, ROD, MT4, 120 h. A general note: Cytopathic effects are the visible damage that an infection or toxin causes in cultured cells.

Data set [6] in a line: Subacute toxicity in male Kunming mouse assessed as piloerection at 50 mg/kg, po administered every other day for 14 days. Type of data set: organism-based. The note with it: in vivo, 336 h, time 14 day.
Data set [7] can be described thus: Cmax in male Sprague-Dawley rat at 10 mg/kg, sc measured upto 24 hrs by LC-MS/MS analysis. The note with it: in vivo. In kind it is ADME, organism-based.
Data set [8] is described as follows: MRT(0 to t) in male Sprague-Dawley rat at 10 mg/kg, sc measured upto 24 hrs by LC-MS/MS analysis. Type of data set: ADME, organism-based. To be noted: in vivo.
Data set [9] is described as follows: Acute toxicity in female Kunming mouse assessed as body weight gain at 1000 mg/kg, IG administered via gavage. Type of data set: organism-based. The note with it: in vivo, po.
Data set [10] has as its system Human immunodeficiency virus 1. Description: Anti-HIV activity against wild type HIV-1 IIIB infected in human MT4 cells assessed as protection against virus-induced cytopathic effect incubated for 5 days by spectrophotometric based MTT assay. The note with it: Human immunodeficiency virus 1, IIIB, MT4, 120 h. Type of data set: functional, organism-based.
Data set [11] in a line: Tmax in male Sprague-Dawley rat at 2 mg/kg, iv measured upto 24 hrs by LC-MS/MS analysis. Type of data set: ADME, organism-based. The note with it: in vivo.
The subject of data set [12] is Human immunodeficiency virus 1. Briefly: Induction of HIV-1 CA-NC assessed as capsid assembly at 10 uM by FRET analysis. To be noted: filed as modulator.
Data set [13] has as its target Structural capsid protein (Human immunodeficiency virus 1, UniProt Q76129). Description: Binding affinity to monomeric HIV-1 NL4.3 capsid protein assessed as dissociation constant by SPR assay. A general note: In SPR one partner is held on a chip, and binding of the other changes the refractive index at the surface.
A short description of data set [14]: Acute toxicity in female Kunming mouse assessed as sedation at 1000 mg/kg, IG administered via gavage. In kind it is organism-based. To be noted: in vivo, po.
Data set [15] has as its system Human immunodeficiency virus 1. Briefly: Antiviral activity against pseudotyped HIV-1 expressing luciferase-reporter transfected in HEK293T cells assessed as viral inhibition at late stage incubated for 48 hrs by Single-round infection assay. Type of data set: functional, organism-based.
The subject of data set [16] is Human immunodeficiency virus 1. Description: Antiviral activity against pseudotyped HIV-1 expressing luciferase-reporter transfected in HEK293T cells assessed as increase in p24 level in progeny virions by ELISA analysis. In kind it is functional, organism-based. Background: An ELISA detects its analyte on a solid surface through an enzyme-linked reagent.

The source made the active and inactive calls. The calls are words filed in the database; no cut-off is given here.

Structural capsid protein, sequence (Q76129 whole entry): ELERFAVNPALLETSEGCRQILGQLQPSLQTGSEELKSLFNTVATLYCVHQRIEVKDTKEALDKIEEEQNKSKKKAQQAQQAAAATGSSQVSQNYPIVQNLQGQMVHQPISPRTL

The molecule `CN(C(=O)[C@H](Cc1cc(F)cc(F)c1)NC(=O)Cc1c[nH]c2ccc(O)cc12)c1ccc2scnc2c1` showed a CL in data set [1] of 282.751 L/h/kg. Moreover, the Activity entry in data set [2], in data set [3], in data set [4], in data set [6], in [9] and in data set [14] was “Non-toxic” throughout. The values for the EC50 in data set [5] and in data set [10] were 98 nM and 2.69 nM, respectively. The Cmax in data set [7] worked out at 4.99 ng/mL. Besides, in data set [8], the MRT last at 24 h was found to be 3.04 h. In addition, the Tmax in data set [11] was found to be 4.98 min. Further, the result in data set [12], in data set [15] and in [16] was Active. Also, the Kd in data set [13] stood at 81.1 nM.

For orientation: EC50 means the concentration at which the effect is half-maximal. Usually Cmax stands for the highest concentration seen after dosing. One may read the MRT last as a mean duration of stay, worked out from the concentration-time curve. What is called Tmax is the time from dosing to the highest level. In general, Kd refers to the equilibrium constant for the complex coming apart.
